Data published in ChEMBL document CHEMBL1201862, “PubChem BioAssay data set” (2004).
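The compound was tested at five concentrations on cells cultured in 96-well plates, with a 48-hour exposure period. GI50: concentration for 50% inhibition of growth.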 Calls of active or inactive are those of the source. No stated cut-off is given here; in the data, active = GI50 up to about 1.1 µM and inactive = higher.

Assays:
Experiment in all cases: NCI tumour cell line growth inhibition, 48 h
T47D = tested on: T47D
OVCAR-5 = tested on: OVCAR-5
SK-MEL-28 = tested on: SK-MEL-28
NCI-H226 = tested on: NCI-H226
SK-OV-3 = tested on: SK-OV-3
SF-268 = tested on: SF-268
SNB-75 = tested on: SNB-75
MCF7 = tested on: MCF7
BT-549 = tested on: BT-549
MDA-MB-231 = tested on: MDA-MB-231
HCT-15 = tested on: HCT-15
UO-31 = tested on: UO-31
SNB-19 = tested on: SNB-19
CAKI-1 = tested on: CAKI-1
IGROV-1 = tested on: IGROV-1
OVCAR-4 = tested on: OVCAR-4
SK-MEL-5 = tested on: SK-MEL-5
LOX IMVI = tested on: LOX IMVI
SW-620 = tested on: SW-620
COLO 205 = tested on: COLO 205
TK-10 = tested on: TK-10
CCRF-CEM = tested on: CCRF-CEM
A549 = tested on: A549
NCI-H522 = tested on: NCI-H522
OVCAR-3 = tested on: OVCAR-3
ACHN = tested on: ACHN
SF-539 = tested on: SF-539
RPMI-8226 = tested on: RPMI-8226
SK-MEL-2 = tested on: SK-MEL-2
KM12 = tested on: KM12
UACC-62 = tested on: UACC-62
HCC 2998 = tested on: HCC 2998
Malme-3M = tested on: Malme-3M
SN12C = tested on: SN12C
MOLT-4 = tested on: MOLT-4
A498 = tested on: A498
EKVX = tested on: EKVX
SR = tested on: SR
OVCAR-8 = tested on: OVCAR-8
HT-29 = tested on: HT-29
UACC-257 = tested on: UACC-257
MDA-MB-435 = tested on: MDA-MB-435
MDA-N = tested on: MDA-N
NCI-H23 = tested on: NCI-H23
HOP-62 = tested on: HOP-62
K562 = tested on: K562
U-251 = tested on: U-251
RXF 393 = tested on: RXF 393
M14 = tested on: M14
PC-3 = tested on: PC-3
NCI-H460 = tested on: NCI-H460
786-0 = tested on: 786-0
DU-145 = tested on: DU-145
SF-295 = tested on: SF-295
HCT-116 = tested on: HCT-116
NCI/ADR-RES = tested on: NCI/ADR-RES

For Cc1cccc(NC(Nc2cccc(C)c2)=C(C(Cl)=C(Cl)Cl)[N+](=O)[O-])c1, which GI50 (T47D) is on record?
Its GI50 is 11.9 µM (inactive).

What about the GI50 (OVCAR-5) of the same compound?
Its GI50 is 19.6 µM (inactive).

What about the GI50 (SK-MEL-28) of the same compound?
Its GI50 is 17.3 µM (inactive).

What about the GI50 (NCI-H226) of the same compound?
The GI50 was 3.35 µM (inactive).

What about the GI50 (SK-OV-3) of the same compound?
Its GI50 is 22.3 µM (inactive).

What about the GI50 (SF-268) of the same compound?
Its GI50 is 13.6 µM (inactive).

And the GI50 (SNB-75)?
The GI50 was 25.2 µM (inactive).

What about the GI50 (MCF7) of the same compound?
The GI50 was 22.3 µM (inactive).

What about the GI50 (BT-549) of the same compound?
The GI50 was 11.6 µM (inactive).

What about the GI50 (MDA-MB-231) of the same compound?
The GI50 was 3.38 µM (inactive).

What about the GI50 (HCT-15) of the same compound?
The GI50 was 13.1 µM.

And the GI50 (UO-31)?
The GI50 was 11.8 µM (inactive).

And the GI50 (SNB-19)?
Its GI50 is 25.8 µM (inactive).

What about the GI50 (CAKI-1) of the same compound?
Its GI50 is 14.7 µM (inactive).

And the GI50 (IGROV-1)?
Its GI50 is 2.28 µM (inactive).

And the GI50 (OVCAR-4)?
Its GI50 is 22.8 µM (inactive).

What about the GI50 (SK-MEL-5) of the same compound?
Its GI50 is 5.98 µM (inactive).

And the GI50 (LOX IMVI)?
Its GI50 is 8.99 µM (inactive).

And the GI50 (SW-620)?
The GI50 was 14.8 µM (inactive).

What about the GI50 (COLO 205) of the same compound?
The GI50 was 12.6 µM (inactive).

What about the GI50 (TK-10) of the same compound?
Its GI50 is 12.4 µM (inactive).

What about the GI50 (CCRF-CEM) of the same compound?
The GI50 was 63.5 µM (inactive).

And the GI50 (A549)?
Its GI50 is 22 µM (inactive).

And the GI50 (NCI-H522)?
Its GI50 is 6.52 µM (inactive).

And the GI50 (OVCAR-3)?
Its GI50 is 9.31 µM (inactive).

And the GI50 (ACHN)?
Its GI50 is 15.7 µM (inactive).

What about the GI50 (SF-539) of the same compound?
The GI50 was 10.1 µM (inactive).

And the GI50 (RPMI-8226)?
The GI50 was 8.11 µM (inactive).

What about the GI50 (SK-MEL-2) of the same compound?
Its GI50 is 16.4 µM (inactive).

And the GI50 (KM12)?
Its GI50 is 19.5 µM (inactive).

What about the GI50 (UACC-62) of the same compound?
The GI50 was 13.4 µM (inactive).

And the GI50 (HCC 2998)?
The GI50 was 22.8 µM (inactive).

And the GI50 (Malme-3M)?
The GI50 was 14.4 µM (inactive).

And the GI50 (SN12C)?
The GI50 was 7.59 µM (inactive).

What about the GI50 (MOLT-4) of the same compound?
The GI50 was 2.17 µM (inactive).

And the GI50 (A498)?
The GI50 was 36.7 µM (inactive).

What about the GI50 (EKVX) of the same compound?
The GI50 was 18.1 µM (inactive).

And the GI50 (SR)?
The GI50 was 3.81 µM (inactive).

And the GI50 (OVCAR-8)?
The GI50 was 12.3 µM (inactive).

And the GI50 (HT-29)?
Its GI50 is 15.3 µM (inactive).

And the GI50 (UACC-257)?
Its GI50 is 19.3 µM (inactive).

What about the GI50 (MDA-MB-435) of the same compound?
The GI50 was 8.87 µM (inactive).

And the GI50 (MDA-N)?
The GI50 was 7.45 µM (inactive).

And the GI50 (NCI-H23)?
The GI50 was 9.12 µM (inactive).

And the GI50 (HOP-62)?
The GI50 was 16.7 µM (inactive).

And the GI50 (K562)?
The GI50 was 50.8 µM (inactive).

What about the GI50 (U-251) of the same compound?
The GI50 was 12.6 µM (inactive).

What about the GI50 (RXF 393) of the same compound?
The GI50 was 3.94 µM (inactive).

What about the GI50 (M14) of the same compound?
Its GI50 is 16.1 µM (inactive).

And the GI50 (PC-3)?
The GI50 was 19.9 µM (inactive).

And the GI50 (NCI-H460)?
Its GI50 is 14.2 µM (inactive).

And the GI50 (786-0)?
The GI50 was 14.7 µM (inactive).

And the GI50 (DU-145)?
The GI50 was 18.7 µM (inactive).

What about the GI50 (SF-295) of the same compound?
Its GI50 is 14 µM (inactive).

And the GI50 (HCT-116)?
The GI50 was 5.31 µM (inactive).

And the GI50 (NCI/ADR-RES)?
The GI50 was 14 µM (inactive).
